Patent publication US6897304B2, “Cephem compounds and ESBL-detecting reagents containing the same” (Zenyaku Kogyo Kabushiki Kaisha, priority 2000, dated 2005)

Experiments:
Details in all cases: 50 μl of 1 U/ml enzyme, 10 minutes
PCase (PCase Type I) = assay: Paper disk colour-change test, reactivity against β-lactamases (PCase); format: biochemical, B. cereus; design: key: −: negative; +: positive; ++: highly positive
Protocol: (§1) Each of the test compounds is dissolved in dimethyl sulfoxide. Paper disks with a diameter of 8 mm containing the test compounds in an amount of 5 or 25 μg per disk were prepared and dried in air. Each of these disks was added dropwise with a solution of β-lactamases (50 μl) prepared to a concentration of 1 U/ml with distilled water and allowed for 10 minutes.
(§2) PCase is an enzyme isolated from B. cereus (production of Sigma Chemical Co. :PCase Type I); and CEPase, from E. cloacae (production of Sigma chemical Co. :CEPase Type IV).

CEPase (CEPase Type IV) = molecular target: T1, CEPase (CEPase Type IV) (Enterobacter cloacae, UniProt P05364); assay: Paper disk colour-change test, reactivity against β-lactamases (CEPase); format: biochemical, E. cloacae; design: key: −: negative; +: positive; ++: highly positive
T1 construct: purchased Sigma chemical Co. CEPase Type IV; host or cells: isolated from E. cloacae
Protocol: as §1, §2

ESBL = assay: Paper disk colour-change test, reactivity against β-lactamases (ESBL); format: biochemical; design: key to Reactivity against β-lactamases: ESBL: −: negative; +: positive; ++: highly positive
Protocol: as §1

T1 sequence (P05364 21-381): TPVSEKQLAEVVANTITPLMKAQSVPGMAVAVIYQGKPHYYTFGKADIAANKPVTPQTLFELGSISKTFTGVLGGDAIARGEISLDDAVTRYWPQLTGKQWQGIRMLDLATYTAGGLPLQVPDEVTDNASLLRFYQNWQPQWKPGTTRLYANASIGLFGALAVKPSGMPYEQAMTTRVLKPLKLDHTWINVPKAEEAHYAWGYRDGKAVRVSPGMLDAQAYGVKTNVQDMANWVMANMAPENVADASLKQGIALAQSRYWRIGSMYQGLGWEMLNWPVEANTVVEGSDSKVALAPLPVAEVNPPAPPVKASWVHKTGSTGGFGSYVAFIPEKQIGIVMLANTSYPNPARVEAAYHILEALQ

Compound | Reactivity against β-lactamases: PCase (PCase (PCase Type I); content 5 μg/disk) | Reactivity against β-lactamases: CEPase (CEPase (CEPase Type IV); content 5 μg/disk) | Reactivity against β-lactamases: ESBL (ESBL; content 5 μg/disk) | color change (ESBL; content 5 μg/disk) | Reactivity against β-lactamases: PCase (PCase (PCase Type I); content 25 μg/disk) | Reactivity against β-lactamases: CEPase (CEPase (CEPase Type IV); content 25 μg/disk) | Reactivity against β-lactamases: ESBL (ESBL; content 25 μg/disk) | color change (ESBL; content 25 μg/disk)
Nc1nc(C(=NOCC(=O)O)C(=O)NC2C(=O)N3C(C(=O)O)=C(C=Cc4ccc([N+](=O)[O-])cc4[N+](=O)[O-])CS[C@H]23)cs1 (stereo partly shown) [compound 5, 7-[2-(2-aminothiazol-4-yl)-2-carboxymethoxyiminoacetamido]-3-(2,4-dinitrostyryl)-3-cephem-4-carboxylic acid] | − | − | ++ | pale yellow → red |  |  |  | 
CC(C)(ON=C(C(=O)NC1C(=O)N2C(C(=O)O)=C(C=Cc3ccc(C#N)cc3)CS[C@H]12)c1csc(N)n1)C(=O)O (stereo partly shown) [compound 3, 7-[2-(2-aminothiazol-4-yl)-2-(1-carboxy-1-methylethoxyimino)acetamido]-3-(4-cyanostyryl)-3-cephem-4-carboxylic acid] |  |  |  |  | − | − | + | pale yellow → golden
CC(C)(ON=C(C(=O)NC1C(=O)N2C(C(=O)O)=C(C=Cc3ccc([N+](=O)[O-])cc3)CS[C@H]12)c1csc(N)n1)C(=O)O (stereo partly shown) [compound 2, 7-[2-(2-aminothiazol-4-yl)-2-(1-carboxy-1-methylethoxyimino)acetamido]-3-(4-nitrostyryl)-3-cephem-4-carboxylic acid] | − | − | + | pale yellow → orange |  |  |  | 
Nc1nc(C(=NOCC(=O)O)C(=O)NC2C(=O)N3C(C(=O)O)=C(C=Cc4ccc([N+](=O)[O-])cc4)CS[C@H]23)cs1 (stereo partly shown) [compound 6, 7-[2-(2-aminothiazol-4-yl)-2-carboxymethoxyiminoacetamido]-3-(4-nitrostyryl)-3-cephem-4-carboxylic acid] | − | − | ++ | pale yellow → orange |  |  |  | 
CON=C(C(=O)NC1C(=O)N2C(C(=O)O)=C(C=Cc3ccc([N+](=O)[O-])cc3)CS[C@H]12)c1csc(N)n1 (stereo partly shown) [compound 4, 7-[2-(2-aminothiazol-4-yl)-2-methoxyiminoacetamido]-3-(4-nitrostyryl)-3-cephem-4-carboxylic acid] | − | − | ++ | pale yellow → orange |  |  |  | 
CC(C)(ON=C(C(=O)NC1C(=O)N2C(C(=O)O)=C(C=Cc3ccc([N+](=O)[O-])cc3[N+](=O)[O-])CS[C@H]12)c1csc(N)n1)C(=O)O (stereo partly shown) [compound 1, 7-[2-(2-aminothiazol-4-yl)-2-(1-carboxy-1-methylethoxyimino)acetamido]-3-(2,4-dinitrostyryl)-3-cephem-4-carboxylic acid] | − | − | ++ | pale yellow → red |  |  |  | 
O=C(Cc1cccs1)NC1C(=O)N2C(C(=O)O)=C(C=Cc3ccc([N+](=O)[O-])cc3[N+](=O)[O-])CS[C@H]12 (stereo partly shown) [compound A, 3-(2,4-dinitrostyryl)-7-(2-thienylacetamido)-3-cephem-4-carboxylic acid, reference compound] | ++ | ++ | ++ | pale yellow → red |  |  |  | 
